Where two headings read alike, the source gives them in different places.
Key:
potato microtubers = settings: potato explants treated during initiation and growth phases of microtuber development; Suttle 1998; cited from earlier work
potato tubers [1] = assay: Example 5: sprout number and emergence from soil of MCP gas-treated potato tubers at 10° C. (Table 5); type: in vivo, Solanum tuberosum Linn; settings: for number of emerged sprouts per potato tuber: 50 ppm MCP; for % Emergence / Sprouts/Tuber: 50 ppm MCP for 20 hr, in soil
Experimental: Potato tubers were treated with 50 ppm MCP in a closed plastic drum (30 gallon) for 20 hr and untreated potatoes served as the control. Each treatment consisted of 9 potato tubers. The treated potatoes were then planted in soil in plastic trays and placed in a ventilated chamber at 10° C. […]

potato tubers [2] = settings: cited from earlier work; for release from dormancy and sprouting of potato tubers: literature (Alam 1994; Minato 1979; Rama 1981; Rylski 1974)
potato tubers [3] = assay: Example 4: sprout number and length of potato tubers dipped in AVG or ethephon (Table 4); type: in vivo, Solanum tuberosum Linn; settings: 1000 ppm ethephon dip; for Sprout length (cm) / Sprouts/potato: 20° C., in soil, dark chamber, 21 days after treatment
Experimental: Potato tubers were dipped in 2000 ppm AVG or 1000 ppm ethephon solution and water-dipped potatoes served as the control. Each treatment consisted of 9 potato tubers. The treated potatoes were then put in plastic trays and placed in dark ventilated chamber at 20° C. […]

[4] = Gold Rush, 15 days after treatment
[5] = Gold Rush, 18 days after treatment
[6] = Norkotah, 15 days after treatment
[7] = Norkotah, 18 days after treatment
[8] = Russet Burbank, 15 days after treatment
[9] = Russet Burbank, 18 days after treatment
[10] = Superior, 15 days after treatment
[11] = Superior, 18 days after treatment

Q: With C1=CC2C=CC1C2 [2,5-norbomadiene] as the compound, how does the sprouting of microtubers (potato microtubers) read?
A: caused precocious sprouting

Q: With CC1=CC1 [MCP, 1-methylcyclopropene] as the compound, how does the “number of emerged sprouts per potato tuber” value (potato tubers [1]; Russet Burbank, Norkotah, and Gold Rush) read?
A: increased

Q: And the “number of emerged sprouts per potato tuber” value (potato tubers [1]; Superior)?
A: not

Q: What about the “% Emergence” value (potato tubers [1]; [4]) of the same compound?
A: 44%

Q: What about the Sprouts/Tuber (potato tubers [1]; [4]) of the same compound?
A: 0.8 B

Q: What about the “% Emergence” value (potato tubers [1]; [5]) of the same compound?
A: 56%

Q: What about the Sprouts/Tuber (potato tubers [1]; [5]) of the same compound?
A: 1.3 B

Q: What about the “% Emergence” value (potato tubers [1]; [6]) of the same compound?
A: 78%

Q: And the Sprouts/Tuber (potato tubers [1]; [6])?
A: 1.7 B

Q: And the “% Emergence” value (potato tubers [1]; [7])?
A: 78%

Q: What about the Sprouts/Tuber (potato tubers [1]; [7]) of the same compound?
A: 2.0 B

Q: And the “% Emergence” value (potato tubers [1]; [8])?
A: 100%

Q: And the Sprouts/Tuber (potato tubers [1]; [8])?
A: 2.4 B

Q: And the “% Emergence” value (potato tubers [1]; [9])?
A: 100%

Q: And the Sprouts/Tuber (potato tubers [1]; [9])?
A: 2.9 B

Q: What about the “% Emergence” value (potato tubers [1]; [10]) of the same compound?
A: 89%

Q: And the Sprouts/Tuber (potato tubers [1]; [10])?
A: 1.2 A

Q: What about the “% Emergence” value (potato tubers [1]; [11]) of the same compound?
A: 89%

Q: And the Sprouts/Tuber (potato tubers [1]; [11])?
A: 1.6 A

Q: Which “release from dormancy and sprouting of potato tubers” value (potato tubers [2]) does the source give for O=P(O)(O)CCCl [ethephon, 2-chloroethyl phosphonic acid] here?
A: enhances release from dormancy and increases sprouting

Q: What about the “sprouting” value (potato tubers [3]; Russet Burbank and Superior) of the same compound?
A: stimulate sprouting

Q: And the “sprout elongation” value (potato tubers [3]; potato tubers)?
A: did not

Q: And the “Sprout length (cm)” value (potato tubers [3]; Russet Burbank)?
A: 15.6 A cm

Q: And the Sprouts/potato (potato tubers [3]; Russet Burbank)?
A: 10.8 B

Q: And the “Sprout length (cm)” value (potato tubers [3]; Superior)?
A: 16.8 AB cm

Q: And the Sprouts/potato (potato tubers [3]; Superior)?
A: 9.9 B

Q: Which “release from dormancy and sprouting of potato tubers” value (potato tubers [2]) does the source give for C=C [ethylene] here?
A: enhances release from dormancy and increases sprouting

Q: And the sprout elongation (potato tubers [2]; literature (Minato 1979; Rylski 1974))?
A: inhibit sprout elongation

Q: For O=[N+]([O-])[O-].[Ag+] [silver nitrate], which sprouting of microtubers (potato microtubers) is on record?
A: caused precocious sprouting
